Measurements taken from US8889411B2, “Modulation of stem and progenitor cell differentiation, assays, and uses thereof” (Anthrogenesis Corporation, priority 2002, dated 2014).

Key:
[1] = tested on: CD1a+CD14− and CD1a−CD14+ cells (DC progenitors); experiment: Detection of apoptosis (Annexin V-FITC / propidium iodide) in isolated DC progenitors; assay type: cell-based, human; conditions: 1 μM; 2 days; GM-CSF and TNF-α
Procedure: Detection of apoptosis: Phosphatidyl serine exposure was determined using Annexin V-FITC staining in combination with propidium iodide (BD Pharmingen apoptosis detection kit I) following manufacturer instruction.
Block in DC generation is not mediated by specific killing of the DC progenitors: To determine if the decrease in DC progenitors was mediated by specific killing, CD34^+ progenitor cells were cultured for a period of 6 days in the presence of SCF, Flt-3L, GM-CSF and TNF-α. At day 6, CD1a^+CD14^− and […] cells (DC progenitors) were isolated by magnetic cell sorting (Miltenyi). Purified populations were cultured for an additional 2 days in the presence of GM-CSF and TNF-α with or without ACTIMID™ (1 μM).

[2] = tested on: Purified human cord blood CD34+ cells; experiment: Monocyte production: CD34/CD14 staining of cord blood CD34+ cells cultured 14 days with cytokines; assay type: cell-based
Procedure: Purified human cord blood CD34+ cells (greater than 90% CD34+) were cultured in 20% FCS IMDM medium supplemented with cytokines (IL3, IL6, G-CSF, KL and Epo) at 4×10^4 cells/ml for 14 days at 37° C. in a humidified 5% CO2 incubator. The experimental groups consisted of a group in which (i) no DMSO or chemical compounds were added (“None”), (ii) DMSO only, (iii) Thalidomide dissolved in DMSO, (iv) ACTIMID™ dissolved in DMSO, and (v) REVIMID™ dissolved in DMSO. Aliquots of cells were harvested and stained with CD34-PE conjugated monoclonal antibody and CD14-FITC conjugated monoclonal antibody.

[3] = tested on: Bone marrow and cord blood CD34+ progenitor cells; experiment: Differentiation of CD34+ progenitor cells into dendritic cells, cell surface phenotype by flow cytometry; assay type: cell-based, human; parameters: key to Cell Population CD15+ / Cell Population CD34+ CD38− / Cell Population CD34− CD38+ / Cell Population CD1a+ CD14− / Cell Population CD1a− CD14+: ↑: up arrow indicates an increase in the cell population; ↓: down arrow indicates a decrease
Procedure: Bone marrow and cord blood CD34^+ progenitor cells were obtained from Clonetics and cultured in Iscove's MDM with BIT 95000 (StemCell Technologies) in the presence of SCF, Flt-3L, GM-CSF and TNF-α for 6 days, and then in the presence of GM-CSF and TNF-α for 6 additional days.
Analysis of cell surface phenotype: Cells were processed for double staining (30 min at 4° C.) at day 6 and day 12 using FITC and PE conjugated mAbs. Antibodies used were from BD Pharmingen: CD34 (PE), CD38 (FITC), CD33 (FITC), CD1a (FITC), CD86 (PE), CD14 (PE), CD83 (PE), CD54 (PE), CD11b (PE), CD11c (PE), HLA-DR (PE), CD15 (FITC), and CD133 (PE) from Miltenyi. Fluorescence analysis was performed on a FACScan flow cytometer after acquisition of 10,000 events (Coulter). Results presented are representative of four independent experiments.
The methodology described above, i.e., the examination of the effect of IMiDs such as ACTIMID™ on the differentiation on early progenitor cells, such as CD34^+ cells, can be applied to any compound of interest, the effect of which on differentiation is desired to be known. As an example of the extension of this assay method to other compounds, we compared the effect of retinoic acid (ATRA) and aspirin to that of ACTIMID™ on the differentiation of CD34^+ cells toward the DC lineage versus the control (DMSO-treated) cells. Retinoic acid was studied because of its known effect on cellular proliferation and differentiation, its therapeutic use in some cancer, and its known teratogenic effect. Conversely, we studied the effect of aspirin because it is a commonly-used anti-inflammatory drug with no immunomodulatory properties. The results at day 6 of CD34^+ progenitors cells cultured in the presence of SCF, Flt-3L, GM-CSF and TNF-α, with or without compound for a period of 6 days, are presented below in Table 2 (up arrow indicates an increase in the cell population; down arrow indicates a decrease).

[4] = Day 12, compound from day 6 to day 12
[5] = day 6, SCF, Flt-3L, GM-CSF and TNF-α, versus DMSO-treated control

**Q.** How did the “level of annexin V+-PI− (early apoptosis) and annexin V+-PI+ (late apoptosis) populations” value [1] turn out when `Nc1cccc2c1C(=O)N(C1CCC(=O)NC1=O)C2=O` (stereo not drawn) [ACTIMID™, 4-(Amino)-2-(2,6-dioxo(3-piperidyl))-isoindoline-1,3-dione] was run?
**A.** no significant increase

**Q.** And the “percentage of monocyte lineage cells” value ([2]; 5 μg/ml, compared to control, FIG. 13)?
**A.** increase

**Q.** What about the “percentage of CD34+ cells of the total cells” value ([2]; 14 days, IL3, IL6, G-CSF, KL and Epo, compound dissolved in DMSO) of the same compound?
**A.** 18.7%

**Q.** And the “production of monocytes (CD14+ cells)” value ([2]; 14 days, relative to DMSO-treated group)?
**A.** overcome

**Q.** And the “toxic effects on CD34+ cells” value [3]?
**A.** no toxic effects

**Q.** What about the “CD34+CD38− population” value ([3]; 1 μM, day 1 to day 12) of the same compound?
**A.** increased

**Q.** And the “acquisition of the DC phenotype” value ([3]; 1 μM, day 1 to day 12)?
**A.** inhibited

**Q.** What about the “expression of co-stimulatory molecules (CD86, CD80) at day 12” value ([3]; 1 μM, day 1 to day 12) of the same compound?
**A.** decreased expression

**Q.** What about the “expression of the CD54bright population” value ([3]; 1 μM, day 12) of the same compound?
**A.** decreased expression

**Q.** What about the “expression of the CD54dim population” value ([3]; 1 μM, day 12) of the same compound?
**A.** increased expression

**Q.** What about the “generation of CD14+CD1a− cells” value ([3]; 1 μM, from day 1) of the same compound?
**A.** decreased

**Q.** And the “generation of CD1a+ cells at day 6” value ([3]; 1 μM, from day 1, particularly CD86+CD1a+ cells)?
**A.** almost completely prevented

**Q.** What about the “expression of the CD15 surface molecule (granulocytic marker)” value ([3]; 12 days in the presence of compound, FIG. 22) of the same compound?
**A.** increased

**Q.** What about the “cells' ability to proliferate” value ([3]; CD34+ cells) of the same compound?
**A.** not to impair

**Q.** And the “CD1a+” value [3, 4]?
**A.** 11.5%

**Q.** What about the “CD14+” value [3, 4] of the same compound?
**A.** 8.0%

**Q.** And the “CD80+” value [3, 4]?
**A.** 13.8%

**Q.** And the “CD86+” value [3, 4]?
**A.** 18.5%

**Q.** What about the “CD11c+CD15− population” value ([3]; FIG. 19B) of the same compound?
**A.** decrease

**Q.** And the “CD11c−CD15+ granulocytic population” value ([3]; FIG. 19B)?
**A.** increase

**Q.** And the “Cell Population CD1a+ CD14−” value [3, 5]?
**A.** ↓

**Q.** And the “Cell Population CD1a− CD14+” value [3, 5]?
**A.** ↓

**Q.** What about the “Cell Population CD15+” value [3, 5] of the same compound?
**A.** ↑

**Q.** What about the “Cell Population CD34+ CD38−” value [3, 5] of the same compound?
**A.** ↑

**Q.** What about the “Cell Population CD34− CD38+” value [3, 5] of the same compound?
**A.** ↓

**Q.** And the “concentration at which increase in CD34+CD38− cells and block in myeloid DC progenitors reached a maximum” value ([3]; dose dependant, day 0 to day 6, FIG. 17)?
**A.** 1 µM

**Q.** And the “culture time with compound needed for interference with the CD34 differentiation pathway” value ([3]; effect reversible, FIG. 18)?
**A.** at least 3 days

**Q.** And the “expression of CD133” value ([3]; multiple doses)?
**A.** increases

**Q.** And the “increase in the CD34+ population” value ([3]; multiple doses between days 0 and 6)?
**A.** intensified the increase

**Q.** And the “expression of HLA-DR molecules” value ([3]; treated CD34+ progenitors, day 12)?
**A.** reduced
